Measured values from patent publication US7713937B2, “Synthetic peptide amides and dimeric forms thereof” (Cara Therapeutics, Inc., priority 2006, dated 2010).
Square brackets hold non-standard residues; d marks the D form. Side chains are listed from the residue outwards. Peptide text beside a SMILES is read from it. * marks the point of attachment. Piperidinyl(4-(1-Pro-OH)) = O=C(O)[C@@H]1CCCN1C1CCN(*)CC1; Piperidin1yl(4-NH2,4-COOH) = NC1(C(=O)O)CCN(*)CC1; Homopiperazine(4-amidino) = N=C(N)N1CCCN(*)CC1; d(hArg) = N=C(N)NCCCC[C@@H](N)C(=O)O; dAgb = N=C(N)NCC[C@@H](N)C(=O)O; Homopiperazinyl = C1CNCCN(*)C1; dAgp = N=C(N)NC[C@@H](N)C(=O)O; dNle = CCCC[C@@H](N)C(=O)O; dDab = NCC[C@@H](N)C(=O)O; Api = NC1(C(=O)O)CCNCC1

How the values were obtained:
[1] = biological target: T1, mouse kappa opioid receptor (mKOR) (Mus musculus, UniProt P33534); experiment: cell-based; settings: for Emax: read-out: mKOR Efficacy(%)
T1 construct: Stimulation of Endogenous Mouse Kappa-Opioid Receptor in R1.G1 Cells; host or cells: R1.G1 mouse thymoma cells

[2] = biological target: T2, human kappa opioid receptor (hKOR) (Homo sapiens, UniProt P41145); experiment: cell-based; settings: for Emax: HEK293, read-out: hKOR Efficacy(%)
T2 construct: expressed in transfected cells; host or cells: HEK-293 cells, transient transfection with Fugene6
T2 sequence (P41145 whole entry): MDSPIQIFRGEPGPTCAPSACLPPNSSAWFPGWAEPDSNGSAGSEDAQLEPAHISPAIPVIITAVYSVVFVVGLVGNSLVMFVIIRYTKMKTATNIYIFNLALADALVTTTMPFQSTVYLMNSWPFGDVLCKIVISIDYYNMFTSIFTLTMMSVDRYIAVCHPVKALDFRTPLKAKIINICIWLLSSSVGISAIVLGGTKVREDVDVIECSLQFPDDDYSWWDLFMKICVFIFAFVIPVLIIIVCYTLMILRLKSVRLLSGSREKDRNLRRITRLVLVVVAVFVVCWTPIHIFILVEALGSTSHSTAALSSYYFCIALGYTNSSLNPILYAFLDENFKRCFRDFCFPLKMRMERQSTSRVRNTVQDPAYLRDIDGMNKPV

T1 sequence (P33534 whole entry): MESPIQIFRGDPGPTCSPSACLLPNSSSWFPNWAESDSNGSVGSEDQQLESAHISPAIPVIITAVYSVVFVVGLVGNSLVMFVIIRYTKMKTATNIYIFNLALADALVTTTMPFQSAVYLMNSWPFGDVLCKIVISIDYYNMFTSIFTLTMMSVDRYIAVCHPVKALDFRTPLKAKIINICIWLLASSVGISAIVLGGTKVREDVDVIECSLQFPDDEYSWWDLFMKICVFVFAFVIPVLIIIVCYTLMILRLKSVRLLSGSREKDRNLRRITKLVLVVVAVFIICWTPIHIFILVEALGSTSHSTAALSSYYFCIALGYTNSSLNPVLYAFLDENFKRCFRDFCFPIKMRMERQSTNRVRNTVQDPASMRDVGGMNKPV

Row | SMILES | EC50 [1] | Emax [1] | EC50 [2] | Emax [2]
1 | CNCCCC[C@@H](NC(=O)[C@@H](CC(C)C)NC(=O)[C@@H](Cc1ccccc1)NC(=O)[C@H](N)Cc1ccccc1)C(=O)N1CCCN(C(=N)N)CC1 [Compound (1), D-Phe-D-Phe-D-Leu-(ε-Me)D-Lys-[4-amidinohomopiperazine amide]] | 0.043 nM | 103% | 0.15 nM | 97%
2 | CNCCCC[C@@H](NC(=O)[C@@H](CC(C)C)NC(=O)[C@@H](Cc1ccccc1)NC(=O)[C@H](N)Cc1ccccc1)C(=O)N1CCC(N)(C(=O)O)CC1 [Compound (3), D-Phe-D-Phe-D-Leu-(ε-Me)D-Lys-[ω(4-aminopiperidine-4-carboxylic acid)]-OH] | 0.052 nM | 96% | 0.16 nM | 100%
3 | CNCCCC[C@@H](NC(=O)[C@@H](CC(C)C)NC(=O)[C@@H](Cc1ccccc1)NC(=O)[C@H](N)Cc1ccccc1)C(=O)N1CCC(N2CCC[C@H]2C(=O)O)CC1 [Compound (6), D-Phe-D-Phe-D-Leu-(ε-Me)D-Lys-[N-(4-piperidinyl)-L-proline]-OH] | 0.036 nM | 94% | 0.13 nM | 100%
4 | CC(C)C[C@@H](NC(=O)[C@@H](Cc1ccccc1)NC(=O)[C@H](N)Cc1ccccc1)C(=O)N[C@H](CCCNC(=N)N)C(=O)N1CCCNCC1 [Compound (7), D-Phe-D-Phe-D-Leu-D-Arg-[homopiperazine amide]] (H-[dF][dF][dL][dR]-Homopiperazinyl) | 0.012 nM | 98% | 0.11 nM | 100%
5 | CC(C)C[C@@H](NC(=O)[C@@H](Cc1ccccc1)NC(=O)[C@H](N)Cc1ccccc1)C(=O)N[C@H](CCCCNC(=N)N)C(=O)N1CCC(N)(C(=O)O)CC1 [Compound (8), D-Phe-D-Phe-D-Leu-D-Har-[ω(4-aminopiperidine-4-carboxylic acid)]-OH] (H-[dF][dF][dL][d(hArg)]-{Piperidin1yl(4-NH2,4-COOH)}) | 0.043 nM | 90% | 0.12 nM | 96%
6 | CC(C)C[C@@H](NC(=O)[C@@H](Cc1ccccc1)NC(=O)[C@H](N)Cc1ccccc1)C(=O)N[C@H](CCCCNC(C)C)C(=O)N1CCC(N)(C(=O)O)CC1 [Compound (9), D-Phe-D-Phe-D-Leu-(ε-iPr)D-Lys-[ω(4-aminopiperidine-4-carboxylic acid)]-OH] | 0.078 nM | 96% | 0.17 nM | 90%
7 | CC(C)C[C@@H](NC(=O)[C@@H](Cc1ccccc1)NC(=O)[C@H](N)Cc1ccccc1)C(=O)N[C@H](CNC(=N)N)C(=O)N1CCC(N)(C(=O)O)CC1 [Compound (10), D-Phe-D-Phe-D-Leu-(β-amidino)D-Dap-[ω(4-aminopiperidine-4-carboxylic acid)]-OH] (H-[dF][dF][dL][dAgp]-{Piperidin1yl(4-NH2,4-COOH)}) | 0.826 nM | 90% | 0.3 nM | 86%
8 | CC(C)C[C@@H](NC(=O)[C@@H](Cc1ccccc1)NC(=O)[C@H](N)Cc1ccccc1)C(=O)N[C@H](CCNC(=N)N)C(=O)N1CCC(N)(C(=O)O)CC1 [Compound (11), D-Phe-D-Phe-D-Leu-D-Nar-[ω(4-aminopiperidine-4-carboxylic acid)]-OH] (H-[dF][dF][dL][dAgb]-{Piperidin1yl(4-NH2,4-COOH)}) | 0.052 nM | 92% | 0.15 nM | 82%
9 | CC(C)C[C@@H](NC(=O)[C@@H](Cc1ccccc1)NC(=O)[C@H](N)Cc1ccccc1)C(=O)N[C@H](CCN)C(=O)N1CCC(N2CCC[C@H]2C(=O)O)CC1 [Compound (12), D-Phe-D-Phe-D-Leu-D-Dbu-[N-(4-piperidinyl)-L-proline]-OH] (H-[dF][dF][dL][dDab]-{Piperidinyl(4-(1-Pro-OH))}) | 0.055 nM | 89% | 0.17 nM | 
10 | CC(C)C[C@@H](NC(=O)[C@@H](Cc1ccccc1)NC(=O)[C@H](N)Cc1ccccc1)C(=O)N[C@H](CCNC(=N)N)C(=O)N1CCC(N2CCC[C@H]2C(=O)O)CC1 [Compound (13), D-Phe-D-Phe-D-Leu-D-Nar-[N-(4-piperidinyl)-L-proline]-OH] (H-[dF][dF][dL][dAgb]-{Piperidinyl(4-(1-Pro-OH))}) | 0.032 nM | 88% | 0.13 nM | 90%
11 | CC(C)C[C@@H](NC(=O)[C@@H](Cc1ccccc1)NC(=O)[C@H](N)Cc1ccccc1)C(=O)N[C@H](CNC(=N)N)C(=O)N1CCC(N2CCC[C@H]2C(=O)O)CC1 [Compound (14), D-Phe-D-Phe-D-Leu-D-Dap(amidino)-[N-(4-piperidinyl)-L-proline]-OH] (H-[dF][dF][dL][dAgp]-{Piperidinyl(4-(1-Pro-OH))}) | 0.349 nM | 86% | 0.21 nM | 81%
12 | CC(C)C[C@@H](NC(=O)[C@@H](Cc1ccccc1)NC(=O)[C@H](N)Cc1ccccc1)C(=O)N[C@H](CCCCN)C(=O)N1CCCN(C(=N)N)CC1 [Compound (15), D-Phe-D-Phe-D-Leu-D-Lys-[4-amidinohomopiperazine amide]] | 0.028 nM | 92% | 0.11 nM | 92%
13 | CC(C)C[C@@H](NC(=O)[C@@H](Cc1ccccc1)NC(=O)[C@H](N)Cc1ccccc1)C(=O)N[C@H](CCCCNC(=N)N)C(=O)N1CCCN(C(=N)N)CC1 [Compound (16), D-Phe-D-Phe-D-Leu-D-Har-[4-amidinohomopiperazine amide]] (H-[dF][dF][dL][d(hArg)]-{Homopiperazine(4-amidino)}) | 0.021 nM | 105% | 0.11 nM | 96%
14 | CC(C)C[C@@H](NC(=O)[C@@H](Cc1ccccc1)NC(=O)[C@H](N)Cc1ccccc1)C(=O)N[C@H](CCCCNC(C)C)C(=O)N1CCCN(C(=N)N)CC1 [Compound (17), D-Phe-D-Phe-D-Leu-(ε-iPr)D-Lys-[4-Amidinohomopiperazine amide]] | 0.039 nM | 103% | 0.1 nM | 102%
15 | CC(C)C[C@@H](NC(=O)[C@@H](Cc1ccccc1)NC(=O)[C@H](N)Cc1ccccc1)C(=O)N[C@H](CNC(=N)N)C(=O)N1CCCN(C(=N)N)CC1 [Compound (18), D-Phe-D-Phe-D-Leu-(β-amidino)D-Dap-[4-amidinohomopiperazine amide]] (H-[dF][dF][dL][dAgp]-{Homopiperazine(4-amidino)}) | 1.02 nM | 103% | 1.15 nM | 93%
16 | CCCC[C@@H](NC(=O)[C@@H](Cc1ccccc1)NC(=O)[C@H](N)Cc1ccccc1)C(=O)N[C@H](CNC(=N)N)C(=O)N1CCCN(C(=N)N)CC1 [Compound (19), D-Phe-D-Phe-D-Nle-(β-amidino)D-Dap-[4-amidinohomopiperazine amide]] (H-[dF][dF][dNle][dAgp]-{Homopiperazine(4-amidino)}) | 2.15 nM | 99% |  | 
17 | CCCC[C@@H](NC(=O)[C@@H](Cc1ccccc1)NC(=O)[C@H](N)Cc1ccccc1)C(=O)N[C@H](CCCNC(=N)N)C(=O)N1CCC[C@@H]1C(=O)O [Compound (40), D-Phe-D-Phe-D-Nle-D-Arg-D-Pro-OH] (H-[dF][dF][dNle][dR][dP]-OH) | 9.05 nM | 88% |  | 
18 | CC(C)C[C@@H](NC(=O)[C@@H](Cc1ccccc1)NC(=O)[C@H](N)Cc1ccccc1)C(=O)N[C@H](CCCN)C(=O)N[C@H]1CN[C@H](C(=O)O)C1 [Compound (41), D-Phe-D-Phe-D-Leu-D-Orn-[(2S,4R)-4-amino-pyrrolidine-2-carboxylic acid]-OH] | 50.6 nM | 87% |  | 
19 | CC(C)C[C@@H](NC(=O)[C@@H](Cc1ccccc1)NC(=O)[C@H](N)Cc1ccccc1)C(=O)N[C@H](CCCN)C(=O)N[C@@H]1CN[C@H](C(=O)O)C1 [Compound (42), D-Phe-D-Phe-D-Leu-D-Orn-[(2S,45)-4-amino-pyrrolidine-2-carboxylic acid]-OH] | 3 nM | 96% |  | 
20 | CC(C)C[C@@H](NC(=O)[C@@H](Cc1ccccc1)NC(=O)[C@H](N)Cc1ccccc1)C(=O)N[C@H](CCCN)C(=O)NC1CCN(CC(N)=O)CC1 [Compound (51), D-Phe-D-Phe-D-Leu-D-Orn-[4-amino-1-carboxymethyl-piperidine]-NH2] | 1.97 nM | 93% |  | 
21 | CC(C)C[C@@H](NC(=O)[C@@H](Cc1ccccc1)NC(=O)[C@H](N)Cc1ccccc1)C(=O)N[C@H](CCCN)C(=O)NCCCC[C@@H](NC(=O)[C@H](N)CCCN)C(=O)O [Compound (82)] | 0.12 nM |  |  | 
22 | CC(C)C[C@@H](N)C(=O)N[C@H](CCCN)C(=O)N[C@H](CCCCNC(=O)[C@@H](CCCN)NC(=O)[C@@H](CC(C)C)NC(=O)[C@@H](Cc1ccccc1)NC(=O)[C@H](N)Cc1ccccc1)C(=O)O [Compound (83)] | 0.05 nM | 91% |  | 
23 | CC(C)C[C@@H](NC(=O)[C@H](N)Cc1ccccc1)C(=O)N[C@H](CCCN)C(=O)N[C@H](CCCCNC(=O)[C@@H](CCCN)NC(=O)[C@@H](CC(C)C)NC(=O)[C@@H](Cc1ccccc1)NC(=O)[C@H](N)Cc1ccccc1)C(=O)O [Compound (84)] | 0.34 nM | 85% |  | 
24 | CC(C)C[C@@H](NC(=O)[C@@H](Cc1ccccc1)NC(=O)[C@H](N)Cc1ccccc1)C(=O)N[C@H](CCCNC(C)C)C(=O)NC1(C(=O)O)CCN(C(=O)[C@@H](CCCNC(C)C)NC(=O)[C@@H](CC(C)C)NC(=O)[C@@H](Cc2ccccc2)NC(=O)[C@H](N)Cc2ccccc2)CC1 [Compound (86), 1N,4N-bis-[D-Phe-D-Phe-D-Leu-(iPr)D-Orn]-4-amino-4-carboxylic-piperidine] | 56.7 nM | 77% |  | 
25 | CC(C)C[C@@H](NC(=O)[C@@H](Cc1ccccc1)NC(=O)[C@H](N)Cc1ccccc1)C(=O)N[C@H](CCNC(=N)N)C(=O)NC1(C(=O)O)CCN(C(=O)[C@@H](CCNC(=N)N)NC(=O)[C@@H](CC(C)C)NC(=O)[C@@H](Cc2ccccc2)NC(=O)[C@H](N)Cc2ccccc2)CC1 [Compound (88), 1N,4N-bis-(D-Phe-D-Phe-D-Leu-D-Nar)-4-amino-4-carboxylic piperidine] (H-[dF][dF][dL][dAgb][Api]([dAgb-dL-dF-dF])-OH) | 13.8 nM | 76% |  | 
